For one assay, the target named is PDE7B (Homo sapiens (Human), UniProt Q9NP56). Briefly: PDE7B assay: inhibition of PDE7B hydrolysis of [3H]cAMP to [3H]AMP (scintillation proximity, yttrium silicate beads). The assay is classed as biochemical. The conditions noted are these: 16 nM [3H]cAMP, 30° C., 20 minutes; read-out: PDE 7B IC50. As for the experimental part: (§1) PDE7A and PDE7B Assay. Compounds were tested for their activity by measuring the inhibition of PDE7A or PDE7B hydrolysis of [3H]cAMP to [3H]AMP. Generally, eight dilutions of compound were assayed in 50 mM Tris-HCl pH 7.5, 8.3 mM MgCl2, 0.5 mg/mL BSA, 1.7 mM EGTA, 16 nM [3H]cAMP, and 1% DMSO. PDE7A or PDE7B (typically 1-5 ng/mL) (BPS BioSciences, CA) is added to initiate the reaction. The reaction was incubated at 30° C. for 20 minutes. PDE7A and PDE7B hydrolysis was terminated by the addition of yttrium silicate beads (GE Healthcare, RPNQ0150) and counted on a Wallac Microbeta scintillation counter, 1-2 hours following the addition of the beads. Data was analyzed using XLfit […] from which ICso values were obtained.
Chain of PDE7B (Q9NP56 whole entry): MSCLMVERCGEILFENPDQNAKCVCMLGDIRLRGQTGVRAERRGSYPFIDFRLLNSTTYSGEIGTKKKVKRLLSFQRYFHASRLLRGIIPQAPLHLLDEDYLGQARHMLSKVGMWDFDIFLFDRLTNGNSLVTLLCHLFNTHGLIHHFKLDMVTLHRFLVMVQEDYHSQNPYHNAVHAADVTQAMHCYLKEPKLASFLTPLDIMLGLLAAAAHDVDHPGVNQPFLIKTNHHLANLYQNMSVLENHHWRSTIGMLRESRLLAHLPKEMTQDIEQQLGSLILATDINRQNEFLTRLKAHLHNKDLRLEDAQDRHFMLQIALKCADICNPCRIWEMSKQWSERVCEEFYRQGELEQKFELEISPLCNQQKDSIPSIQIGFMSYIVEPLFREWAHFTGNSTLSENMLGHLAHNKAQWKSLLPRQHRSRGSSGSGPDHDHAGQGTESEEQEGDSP

Another assay has as its target PDE7A (Homo sapiens (Human), UniProt Q13946). Nature of the assay: PDE7A assay: inhibition of PDE7A hydrolysis of [3H]cAMP to [3H]AMP (scintillation proximity, yttrium silicate beads). The assay is classed as biochemical. As to conditions: 16 nM [3H]cAMP, 30° C., 20 minutes; read-out: PDE 7A IC50. On the procedure: as §1
A general note: Scintillation proximity formats need no separation of bound from free tracer.

The record followed here is patent US20250066383A1, “PDE 7 MODULATOR COMPOUNDS” (Omeros Corporation, priority 2023, published 2025).

SMILES strings stand for the structures.

Chain of PDE7A (Q13946 whole entry): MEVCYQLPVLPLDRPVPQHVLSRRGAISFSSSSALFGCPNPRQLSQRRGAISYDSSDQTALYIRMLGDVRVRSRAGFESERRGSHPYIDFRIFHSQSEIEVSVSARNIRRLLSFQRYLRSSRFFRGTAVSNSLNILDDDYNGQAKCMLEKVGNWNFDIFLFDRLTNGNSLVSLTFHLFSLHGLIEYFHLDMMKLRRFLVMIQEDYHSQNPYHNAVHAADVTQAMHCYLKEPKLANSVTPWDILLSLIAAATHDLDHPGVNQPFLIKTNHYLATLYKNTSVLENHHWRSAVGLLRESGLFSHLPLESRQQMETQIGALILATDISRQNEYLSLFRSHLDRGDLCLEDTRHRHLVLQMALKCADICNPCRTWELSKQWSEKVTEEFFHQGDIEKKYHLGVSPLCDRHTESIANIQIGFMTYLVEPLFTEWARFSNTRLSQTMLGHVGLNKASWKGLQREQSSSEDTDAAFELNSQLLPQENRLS

As usually defined, the IC50 is the point on the concentration scale where inhibition reaches its midpoint. For `CC(=O)N1CCN([C@H]2C[C@H](NC(=O)c3cc4c(C)nn(-c5ccccc5Cl)c4s3)C2)CC1` [Compound I-5, N-((1r,3r)-3-(4-acetyl-piperazin-1-yl)cyclo-butyl)-1-(2-chlorophen-yl)-3-methyl-1H-thieno [2,3-c]pyrazole-5-carboxamide], the IC50 on PDE7B and at PDE7A was 30 to 100 nM in each case.
